For orientation: bioavailability means the share of a dose that reaches the circulation, judged against a reference dose that is usually intravenous.

The conditions of data set [1]: fold more active; cited from earlier work.
Data set [2] can be described thus: Relative pharmacological potency of S-Ketorolac tromethamine versus Rac Ketorolac and AA. The settings on record: fold more potent.
Data set [3] deals with rats (lethal effects vs anti-allodynic effects). Description: Therapeutic index (DL50/DE50) and safety margin study in rats. In kind it is in vivo, rat. The settings on record: 24 h post-treatment. On the procedure:
As further support for this invention, the therapeutic index study was also performed on rats 24 h post-treatment, which is defined as the quotient of DL50 (24 h)/DE50. From said analysis and calculation, we get that the higher the result, the safer the drug, as this indicates the number of times it is necessary to increase DE50 for it to be turned into DL50 in the population being analyzed.
In other words, in a combination of said active ingredients, the CDR (for desired effects and lethal effects) was farther apart, therefore S-Ketorolac is safer in combination, as these variables are much farther apart. […] There is less distance between the CDR (desired effects and lethal effects) of the compound alone, than between the CDR (desired effects and toxic effects) of S-Ketorolac in combination with gabapentin.

For data set [4], the system named is rats with a chronic constriction injury (neuropathic pain). In words: Acetone test (cold allodynia) in rats with chronic constriction injury of the sciatic nerve. It counts as in vivo, rat (male Wistar). The settings on record: oral. The text has this:
(§1) Said experimental model is based on the unilateral ligature of the sciatic nerve, which produces a chronic constriction injury, (CCI). This experimental model has shown itself to be sensitive to a number of drugs that are used clinically for the symptomatic treatment of neuropathic pain. […] The following observed behaviors are indicative of neuropathic pain: (1) autotomy, the animal injures itself in the denervated leg, (2) allodynia, withdrawal of the leg in the face of harmless stimulus that may be mechanical or cold (acetone), (3) hyperalgesia, violent withdrawal of the leg in the face of a moderate thermal or mechanical stimulus (Von Frey filaments 15 g). These aforementioned parameters have been widely used on pharmacology and the modulation of neuropathic pain. The tests that are most used to determine allodynia and hyperalgesia are: mechanical hyperalgesia with the von Frey filaments, the cold allodynia with acetone, thermal hyperalgesia with the plantar test and mechanical hyperalgesia with the pinprick test.
Male Wistar rats [Crl:(WI)fBR], with a body weight of 120-140 g at the start of the experimental phase, which weighed 160-180 g when the drugs were administered, were used for the particular study in this invention. The animals were kept in polycarbonate boxes under conditions of controlled temperature and light, with 12-hour cycles of light/dark and ad limitum water and food intake. All the experiments were carried out during the light phase. The animals were used and managed following the guidelines established in the Ethical Guidelines for Pain Research of the International Association for the Study of Pain, and following a protocol approved by the Local Committee of Ethics for the Management of Laboratory Animals. The number of experimental animals was kept to a minimum (n=6 to 8), and, at the end of the experimental determinations, the animals were sacrificed using carbon dioxide.
The model for ICC neuropathic pain described by Bennett and Xie in 1988 was standardized. The rats were anesthetized and the sciatic nerve of the rear right leg was immediately dissected, by means of an incision, dissecting the biceps femoris to locate the part that is most proximal to the trifurcation of the sciatic nerve and apply four loose ligatures with silk thread. At the end of the surgery, the muscle was sutured with absorbable thread and the skin with silk thread. The surgery of the rats falsely operated on (Sham) was done in the same way, however, the sciatic nerve was not tied. This entire procedure was performed under aseptic conditions.
The degree of hyperalgesia and allodynia in the rats submitted to the sciatic nerve surgery was determined by means of the Von Frey test and the acetone test. These determinations were made a day before the surgery and, 7 days after the surgery a time-course of 180 minutes was done for both the control (saline) and for the compounds that were administered orally, in the study, both singly and combined, to evidence the hyperalgesia and allodynia that were present. Then a time-course was made of hyperalgesia and allodynia, but now in rats with chronic treatment (1 administration/12 hours), carrying out the determinations of both hyperalgesia and allodynia 30 minutes after the morning administration of the treatments being studied and in the following period: 0, 1, 3, 5 and 7 days (14 administrations in total).
At the end of the Von Frey test, the rats were left to rest on the metal screen and after a 5-10 min period, approximately 0.1 mL of acetone was applied to the plantar surface of the rear legs using a syringe with a flexible plastic tip, below the metal grating. The time (seconds) the animal remained with its leg removed from the surface was recorded with a chronometer for 60 s after exposure to the acetone. The response time of the rear right leg was measured and three replications were made at intervals of at least 2 minutes. […]

Data set [5] shares this test system. In words: Von Frey test (mechanical hyperalgesia, 15 g filament) in rats with chronic constriction injury of the sciatic nerve. In kind it is in vivo, rat (male Wistar). The settings on record: oral.
Text: as §1
Male Wistar rats [Crl:(WI)fBR], with a body weight of 120-140 g at the start of the experimental phase, which weighed 160-180 g when the drugs were administered, were used for the particular study in this invention. The animals were kept in polycarbonate boxes under conditions of controlled temperature and light, with 12-hour cycles of light/dark and ad limitum water and food intake. All the experiments were carried out during the light phase. […]
The degree of hyperalgesia and allodynia in the rats submitted to the sciatic nerve surgery was determined by means of the Von Frey test and the acetone test. […]
The rats were placed on a metal screen in a box of transparent acrylic where they remained for at least 10 minutes to adapt before the test. The response was determined to a tactile stimulus applied to the plantar surface of the rear right leg using the 15 g von Frey filament. […]

For data set [6] the following is noted: cited from earlier work.
Where [7] appears, read: 31.6 mg/kg gabapentin alone, 1.5 h after administration.

For the molecule `NC(CO)(CO)CO.O=C(c1ccccc1)c1ccc2n1CC[C@@H]2C(=O)O` [S-Ketorolac tromethamine, S-(−)-5-Benzoyl-2,3-dihydro-1H-pyrrolizine-1-carboxylic acid of 2-amino-2-(hydroxymethyl)-1,3-propanediol (1:1)], in data set [1], the “activity relative to the R form” value is 75 times. Besides, in data set [2], the “pharmacological potency relative to AA” value came to 1037 times and the “pharmacological potency relative to Rac Ketorolac” value is 3.3 times.
Take `O=C(c1ccccc1)c1ccc2n1CC[C@@H]2C(=O)O` [S-Ketorolac]: the “therapeutic index, DL50 (24 h)/DE50” value in data set [3] is 18,541. For the same molecule, the entries for the “anti-allodynic effect” value in data set [4] (0.0316 mg/kg S-Ketorolac) and in data set [4] (1.0 mg/kg S-Ketorolac) were “almost no anti-allodynic effects” and “maximum anti-allodynic effect”, respectively. Further, the maximal anti-allodynic response in data set [4] (0.316 mg/kg S-Ketorolac alone, 30 minutes after administration) is on record as 44.00±7.71%. The “maximal response for anti-hyperalgesic effects” value in data set [5] (31.6 mg/kg S-Ketorolac alone, 1 h after administration) worked out at 43.33±5.58%. Besides, in data set [5] (doses 0.0316-100 mg/kg, no further increase above), the “dose up to which the anti-hyperalgesic effect increased with dose” value is listed as 3.16 mg/kg.
Regarding `NCC1(CC(=O)O)CCCCC1` [gabapentin], in data set [6] (4,800 mg/day dose), the bioavailability was 27%. Moreover, the “metabolism” value in data set [6] (eliminated by renal excretion) is listed as “not appreciably metabolized”. Besides, in data set [6] (in vivo), the “binding to plasma proteins” value is 3%. Further, in data set [6] (patients with epilepsy), the “concentration in the cephalospinal liquid as share of the concentration in plasma” value was “approximately 20%”. The “anti-allodynic effect” value in data set [4] (3.16 mg/kg gabapentin) is “practically does not generate anti-allodynic effects”; in data set [4] (31.6 mg/kg gabapentin alone, 3 h after administration) it was 23.70±6.90%; in data set [4] (177.8 mg/kg gabapentin) it was “maximum anti-allodynic effect”. This molecule displayed a maximal anti-allodynic response in data set [4] (setting [7]) of 45.40±6.20%. Besides, the “time of maximal anti-allodynic response after administration (latency)” value in data set [4] (gabapentin 31.6 mg/kg alone or with 0.316 mg/kg S-Ketorolac) came out at 1.5 h. Moreover, the “maximal response for anti-hyperalgesic effects” value in data set [5] (setting [7]) worked out at 71.67±12.50%.

These data come from US11510903B2, “Synergic pharmaceutical composition of the active enantiomer (S)-ketorolac and Gabapentin for the treatment of neuropathic pain” (priority 2018, dated 2022).
